From PubChem BioAssay (NCI)
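Interpolation was linear, between the two tested concentrations surrounding the appropriate level; five concentrations were tested over 48 hours in 96-well plates. The concentration for full growth arrest is given as TGI.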

Tests used:
Assay in all cases: NCI anticancer screen, dose series, 48 h
A549 NSCLC = test system: A549 NSCLC
786-0 renal = test system: 786-0 renal
SF-295 CNS = test system: SF-295 CNS
MDA-N = test system: MDA-N
A498 renal = test system: A498 renal
HL-60(TB) leukemia = test system: HL-60(TB) leukemia
NCI-H23 lung = test system: NCI-H23 lung
HCT-116 colon = test system: HCT-116 colon
NCI/ADR-RES ovarian = test system: NCI/ADR-RES ovarian
SR leukemia = test system: SR leukemia
PC-3 prostate = test system: PC-3 prostate
SNB-75 CNS = test system: SNB-75 CNS
SW-620 colon = test system: SW-620 colon
SN12C renal = test system: SN12C renal
SF-268 CNS = test system: SF-268 CNS
OVCAR-4 ovarian = test system: OVCAR-4 ovarian
UACC-62 melanoma = test system: UACC-62 melanoma
HCC-2998 colon = test system: HCC-2998 colon
MDA-MB-435 = test system: MDA-MB-435
RPMI-8226 leukemia = test system: RPMI-8226 leukemia
OVCAR-3 ovarian = test system: OVCAR-3 ovarian
M14 melanoma = test system: M14 melanoma
U251 CNS = test system: U251 CNS
HT29 colon = test system: HT29 colon
SK-OV-3 ovarian = test system: SK-OV-3 ovarian
COLO 205 colon = test system: COLO 205 colon
HS 578T breast = test system: HS 578T breast
HCT-15 colon = test system: HCT-15 colon
EKVX NSCLC = test system: EKVX NSCLC
SNB-19 CNS = test system: SNB-19 CNS
ACHN renal = test system: ACHN renal
MOLT-4 leukemia = test system: MOLT-4 leukemia
HOP-62 NSCLC = test system: HOP-62 NSCLC
UO-31 renal = test system: UO-31 renal
KM12 colon = test system: KM12 colon
TK-10 renal = test system: TK-10 renal
RXF 393 renal = test system: RXF 393 renal
T-47D breast = test system: T-47D breast
K-562 leukemia = test system: K-562 leukemia
IGROV1 ovarian = test system: IGROV1 ovarian
HOP-92 NSCLC = test system: HOP-92 NSCLC
NCI-H460 lung = test system: NCI-H460 lung
BT-549 breast = test system: BT-549 breast
SF-539 CNS = test system: SF-539 CNS
OVCAR-5 ovarian = test system: OVCAR-5 ovarian
CCRF-CEM leukemia = test system: CCRF-CEM leukemia
MCF7 breast = test system: MCF7 breast
LOX IMVI melanoma = test system: LOX IMVI melanoma
SK-MEL-5 melanoma = test system: SK-MEL-5 melanoma
OVCAR-8 ovarian = test system: OVCAR-8 ovarian
MDA-MB-231 breast = test system: MDA-MB-231 breast
DU-145 prostate = test system: DU-145 prostate
CAKI-1 renal = test system: CAKI-1 renal
NCI-H226 lung = test system: NCI-H226 lung
UACC-257 melanoma = test system: UACC-257 melanoma
NCI-H522 lung = test system: NCI-H522 lung
SK-MEL-2 melanoma = test system: SK-MEL-2 melanoma

## CCCCOC(=O)NC(c1ccccc1)C(O)C(=O)OC1C[C@@]2(O)C(OC(=O)c3ccccc3)C3[C@](C)(C(=O)[C@H](OC(C)=O)C(=C1C)C2(C)C)[C@@H](O)C[C@H]1OC[C@@]31OC(C)=O (stereo partly drawn)
A549 NSCLC
  TGI: > 10 µM
786-0 renal
  TGI: > 10 µM
SF-295 CNS
  TGI: > 10 µM
MDA-N
  TGI: 0.0113 µM
A498 renal
  TGI: 0.0663 µM
HL-60(TB) leukemia
  TGI: 0.00741 µM
NCI-H23 lung
  TGI: > 10 µM
HCT-116 colon
  TGI: > 10 µM
NCI/ADR-RES ovarian
  TGI: > 6.5 µM
SR leukemia
  TGI: > 10 µM
PC-3 prostate
  TGI: > 10 µM
SNB-75 CNS
  TGI: > 10 µM
SW-620 colon
  TGI: > 10 µM
SN12C renal
  TGI: > 10 µM
SF-268 CNS
  TGI: > 10 µM
OVCAR-4 ovarian
  TGI: > 10 µM
UACC-62 melanoma
  TGI: > 10 µM
HCC-2998 colon
  TGI: 0.595 µM
MDA-MB-435
  TGI: 0.0241 µM
RPMI-8226 leukemia
  TGI: > 7.96 µM
OVCAR-3 ovarian
  TGI: > 6.88 µM
M14 melanoma
  TGI: > 10 µM
U251 CNS
  TGI: > 10 µM
HT29 colon
  TGI: 6.81 µM
SK-OV-3 ovarian
  TGI: > 10 µM
COLO 205 colon
  TGI: > 10 µM
HS 578T breast
  TGI: 0.0469 µM
HCT-15 colon
  TGI: > 10 µM
EKVX NSCLC
  TGI: > 10 µM
SNB-19 CNS
  TGI: > 10 µM
ACHN renal
  TGI: > 10 µM
MOLT-4 leukemia
  TGI: > 9.14 µM
HOP-62 NSCLC
  TGI: > 10 µM
UO-31 renal
  TGI: > 10 µM
KM12 colon
  TGI: > 10 µM
TK-10 renal
  TGI: > 10 µM
RXF 393 renal
  TGI: 0.0755 µM
T-47D breast
  TGI: > 10 µM
K-562 leukemia
  TGI: > 10 µM
IGROV1 ovarian
  TGI: > 10 µM
HOP-92 NSCLC
  TGI: > 10 µM
NCI-H460 lung
  TGI: > 10 µM
BT-549 breast
  TGI: > 10 µM
SF-539 CNS
  TGI: 0.0175 µM
OVCAR-5 ovarian
  TGI: > 10 µM
CCRF-CEM leukemia
  TGI: > 10 µM
MCF7 breast
  TGI: > 10 µM
LOX IMVI melanoma
  TGI: > 10 µM
SK-MEL-5 melanoma
  TGI: > 10 µM
OVCAR-8 ovarian
  TGI: > 10 µM
MDA-MB-231 breast
  TGI: > 10 µM

## COc1cc2c(c(OC)c1OC)-c1ccc(SC)c(=O)cc1[C@@H](OC(=O)c1ccncc1)CC2
A549 NSCLC
  TGI: > 100 µM
DU-145 prostate
  TGI: > 62.7 µM
786-0 renal
  TGI: > 40.3 µM
SF-295 CNS
  TGI: < 0.01 µM
CAKI-1 renal
  TGI: 23.2 µM
MDA-N
  TGI: > 100 µM
A498 renal
  TGI: 21.4 µM
HL-60(TB) leukemia
  TGI: > 100 µM
NCI-H23 lung
  TGI: > 100 µM
NCI-H226 lung
  TGI: < 0.01 µM
HCT-116 colon
  TGI: > 35 µM
NCI/ADR-RES ovarian
  TGI: < 0.01 µM
SR leukemia
  TGI: > 39.1 µM
PC-3 prostate
  TGI: > 100 µM
SNB-75 CNS
  TGI: > 100 µM
SW-620 colon
  TGI: > 100 µM
UACC-257 melanoma
  TGI: 24 µM
SF-268 CNS
  TGI: 49.3 µM
OVCAR-4 ovarian
  TGI: > 100 µM
UACC-62 melanoma
  TGI: > 32.1 µM
HCC-2998 colon
  TGI: 11.6 µM
OVCAR-3 ovarian
  TGI: 21.9 µM
M14 melanoma
  TGI: 56.7 µM
U251 CNS
  TGI: > 100 µM
HT29 colon
  TGI: < 0.01 µM
SK-OV-3 ovarian
  TGI: 43.7 µM
NCI-H522 lung
  TGI: 39.5 µM
COLO 205 colon
  TGI: > 100 µM
HS 578T breast
  TGI: > 56.5 µM
EKVX NSCLC
  TGI: > 100 µM
SNB-19 CNS
  TGI: > 100 µM
ACHN renal
  TGI: 31.2 µM
MOLT-4 leukemia
  TGI: > 100 µM
HOP-62 NSCLC
  TGI: > 100 µM
UO-31 renal
  TGI: 52.6 µM
SK-MEL-2 melanoma
  TGI: > 100 µM
TK-10 renal
  TGI: 55.3 µM
RXF 393 renal
  TGI: > 82.9 µM
T-47D breast
  TGI: > 100 µM
K-562 leukemia
  TGI: > 100 µM
IGROV1 ovarian
  TGI: > 46.8 µM
HOP-92 NSCLC
  TGI: > 100 µM
NCI-H460 lung
  TGI: 11.2 µM
BT-549 breast
  TGI: 22.8 µM
SF-539 CNS
  TGI: < 0.01 µM
OVCAR-5 ovarian
  TGI: > 100 µM
CCRF-CEM leukemia
  TGI: 46.8 µM
MCF7 breast
  TGI: > 100 µM
LOX IMVI melanoma
  TGI: > 35.7 µM
SK-MEL-5 melanoma
  TGI: 15.4 µM
OVCAR-8 ovarian
  TGI: > 100 µM
MDA-MB-231 breast
  TGI: > 100 µM
